Literature values, collected in patent US4177199A, “Silver salts of phosphanilic acid” (Bristol-Myers Company, priority 1978, dated 1979).

Tests used:
[1] = laboratory animals
S. typhosa = settings: mice infected with S. typhosa
Histoplasma capsulatum = settings: mouse, in vivo, iv
[2] = system: experimental tuberculosis
[3] = laboratory animals; remark: listed apart in the source
Ps. fluorescens = settings: mice infected with Ps. fluorescens
[4] = system: a variety of bacterial species
Plasmodium berghei = settings: mice infected with Plasmodium berghei
[5] = by admixture or salt formation

## Nc1ccc(P(=O)(O)O)cc1 [phosphanilic acid]
[1]
  absorption: poor
S. typhosa
  efficacy in vivo in infected mice: effective
Histoplasma capsulatum
  protective effect against Histoplasma capsulatum infection: some protective effect
[2]
  effect in vivo against experimental tuberculosis: no effect
[3]
  toxicity: low
tuberculosis
  tubercularstatic activity in vitro: good
Ps. fluorescens
  efficacy in vivo in infected mice: effective
[4]; aromatic phosphonic and phosphinic acids
  in vitro activity among compounds tested: generally the most active of the compounds tested
[4]; molar basis
  activity compared with sulfathiazole: approached that of sulfathiazole
Plasmodium berghei
  efficacy in vivo in infected mice: effective
[5]
  potentiation of various tetracycline antibiotics: potentiation
